Data set [1] has as its system human microsomal proteins. The data set is described as follows: Stable isotope (GSH/GSX) trapping of reactive metabolites in microsomal incubation, LC-MS/MS neutral loss scanning of 129 Da. It counts as in vitro ADME. The following applies: 10 μM test compound, 1 mg/mL human microsomal proteins, 1 mM GSH and GSX (1:1), NADPH generating system, 60 min, 37° C., pH 7.4. The protocol:
All microsomal incubations described herein were performed at 37° C. in a water bath. […] Alternatively, the reaction mixtures were subjected to liquid-liquid extractions to recover the metabolites from supernatants.
MS analyses were performed on a Micromass (Manchester, UK) Quattro Micro triple quadrupole mass spectrometer.
For complete profiling of reactive metabolites, samples were first subjected to chromatographic separations with an Agilent 1100 HPLC system with an auto-sampler (Agilent Technologies, Palo Alto, Calif.), and eluents were introduced to the Quattro Micro triple quadrupole mass spectrometer operated in the neutral loss scanning mode. An Agilent Zorbax SB C18 column (2.1×50 mm) was used for the chromatographic separation. […] At 7 min, the column was flushed with 95% acetonitrile for 2 min before re-equilibration at initial conditions. […] Data were processed using the Masslynx version 4.0 software from Micromass.

Data set [2] concerns human microsomal proteins. The data set is described as follows: Stable isotope (GSH/GSX) trapping of reactive metabolites in microsomal incubation, FIA-MS/MS neutral loss scanning of 129 Da. It counts as in vitro ADME. The following applies: 10 μM test compound, 1 mg/mL human microsomal proteins, 1 mM GSH and GSX (1:1), 60 min, 37° C.; flow injection FIA-MS/MS, analysis within 30 sec. The protocol:
All microsomal incubations described herein were performed at 37° C. in a water bath. The test compound (or drug candidate) was mixed with human microsomal proteins in 50 mM potassium phosphate buffer (pH 7.4) supplemented with GSH and GSX that were pre-mixed at an equal molar ratio of 1:1. Reaction mixtures were then warmed at 37° C. for 5 min. The reactions were initiated by the addition of a NADPH generating system to yield a final volume of 1000 μL. The final reaction mixtures contained 10 μM test compounds, 1 mg/mL microsomal proteins, 1 mM GSH and GSX, 1.3 mM NADP^+, 3.3 mM glucose-6-phosphate, 0.4 U/ml glucose-6-phosphate dehydrogenase, 3.3 mM magnesium chloride. After a 60 min incubation, the reactions were terminated by the addition of 150 μL of trichloroacetic acid (10%). The samples were centrifuged at 10,000 g for 15 min at 4° C. to pellet the precipitated protein, and the supernatants were subjected to solid-phase extractions. […]
For rapid screening of reactive metabolites (as described in Example 11), cleaned samples were directly injected to the mass spectrometer that was operated in the neutral scanning mode. […] After a glutathione conjugate was detected, CID MS/MS spectrum was subsequently acquired to determine the structure of the glutathione conjugate. […]

These results are taken from patent US7445909B2, “Method for detecting reactive metabolites using a combination of glutathione and a stable isotopic derivative of glutathione and mass spectroscopy-based pattern recognition” (Janssen Phamaceutica N.V., priority 2004, dated 2008).

Take `C[C@]12CC[C@@H]3c4ccc(O)c(O)c4CC[C@H]3[C@@H]1CCC2=O` [4-Hydroxyestrone]: in data set [1], the “detection of reactive metabolites (characteristic isotopic doublet of GSH/GSX adducts in neutral loss mass spectrum)” value is “only one component at a retention time of 5.11 min displayed characteristic doublet”. Moreover, the “detection of reactive metabolite (characteristic isotopic doublet of GSH/GSX adducts in neutral loss mass spectrum)” value in data set [2] is recorded as “the reactive metabolite was detected”.

For `O=C(O)Cc1ccccc1Nc1c(Cl)cccc1Cl` [Diclofenac], the “detection of reactive metabolites (characteristic isotopic doublet of GSH/GSX adducts in neutral loss mass spectrum)” value in data set [1] is reported as “two reactive metabolites were co-eluted”.

In the case of `NC(=O)OCC(COC(N)=O)c1ccccc1` [Felbamate], the “detection of reactive metabolites (characteristic isotopic doublet of GSH/GSX adducts in neutral loss mass spectrum)” value in data set [1] is “no reactive metabolites were formed”.
